Reference: paper PMC11855827, “High-Throughput Screening of Five Compound Libraries for Anthelmintic Activity and Toxicity Leads to the Discovery of Two Flavonoid Compounds” (International Journal of Molecular Sciences, 2025)

Test system: C. elegans
Conditions: Table S2, C. elegans SS assay, 110 μM, averages of 4 data points

Molecule	Percentage of motility inhibition 0 h	Percentage of motility inhibition 24 h
C/C=C(\C)C(=O)OC1C[C@H]2CC[C@@H](C1)N2C (some centres unmarked) [Tigloidin]	0%	0%
Oc1cc(O)c2c(c1)O[C@@]1(c3ccc(O)c(O)c3)Oc3cc(O)c4c(c3[C@@H]2[C@H]1O)O[C@H](c1ccc(O)c(O)c1)[C@H](O)[C@H]4c1c(O)cc(O)c2c1O[C@H](c1ccc(O)c(O)c1)[C@H](O)C2 [Cinnamtannin B‐1]	0%	4%
Cl.O[C@H]1[C@H]2c3cc4c(cc3CN3CCC(=C[C@@H]1O)[C@H]23)OCO4 [Lycorine (hydrochloride)]	15%	0%
Cc1nnc(C(=O)NC(C)(C)c2nc(C(=O)NCc3ccc(F)cc3)c([O-])c(=O)n2C)o1.[K+] [Raltegravir (potassium salt)]	3%	4%
CC(C)=CCC[C@](C)(O[C@@H]1O[C@H](CO)[C@@H](O)[C@H](O)[C@H]1O)[C@H]1CC[C@]2(C)[C@@H]1[C@H](O)C[C@@H]1[C@@]3(C)CC[C@H](O)C(C)(C)[C@@H]3[C@@H](O[C@@H]3O[C@H](CO)[C@@H](O)[C@H](O)[C@H]3O[C@@H]3OC[C@@H](O)[C@H](O)[C@H]3O)C[C@]12C [Notoginsenoside R1]	5%	26%
C[C@H](CC[C@@H](O[C@@H]1O[C@H](CO[C@@H]2O[C@H](CO)[C@@H](O)[C@H](O)[C@H]2O)[C@@H](O)[C@H](O)[C@H]1O[C@@H]1O[C@H](CO)[C@@H](O)[C@H](O)[C@H]1O)C(C)(C)O)[C@H]1CC[C@@]2(C)[C@@H]3CC=C4[C@@H](CC[C@H](O[C@@H]5O[C@H](CO[C@@H]6O[C@H](CO)[C@@H](O)[C@H](O)[C@H]6O)[C@@H](O)[C@H](O)[C@H]5O)C4(C)C)[C@]3(C)CC[C@]12C [11-Deoxymogroside V]	0%	10%
COc1ccc(-c2coc3cc(OC)ccc3c2=O)cc1 [4',7‐Dimetho xyisoflavone]	21%	27%
CC(C)=C[C@@H]1CO[C@]23C[C@]4(CO2)[C@H](CC[C@@H]2[C@@]5(C)CC[C@H](O[C@@H]6OC[C@H](O)[C@H](O[C@@H]7O[C@H](CO)[C@@H](O)[C@H](O)[C@H]7O)[C@H]6O[C@@H]6O[C@@H](CO)[C@H](O)[C@H]6O)C(C)(C)[C@@H]5CC[C@]24C)[C@H]3[C@@]1(C)O [Bacopasaponin C]	6%	40%
O=c1cc(-c2ccc(O)cc2)oc2c([C@@H]3O[C@H](CO)[C@@H](O)[C@H](O)[C@H]3O)c(O)c([C@@H]3O[C@H](CO)[C@@H](O)[C@H](O)[C@H]3O)c(O)c12 [Vicenin 2]	0%	3%
Oc1cccnc1 [3‐Hydroxypyr idine]	18%	19%
O=C(O[C@H]1[C@H](Oc2c(-c3ccc(O)c(O)c3)oc3cc(O)cc(O)c3c2=O)O[C@H](CO)[C@H](O)[C@@H]1O)c1cc(O)c(O)c(O)c1 [2"‐O‐Galloylhyperin]	32%	1%
C=C[C@H]1[C@H](O[C@@H]2O[C@H](CO)[C@@H](O)[C@H](O)[C@H]2O)OC=C(C(=O)OC)[C@H]1CC(=O)O [Secoxyloganin]	0%	3%
COc1ccc(-c2coc3cc(O[C@@H]4O[C@H](CO)[C@@H](O)[C@H](O)[C@H]4O)ccc3c2=O)cc1O [Calycosin‐7‐O‐β‐D‐glucoside]	20%	11%
CC(=O)OC1CC2(O)C(OC(=O)c3ccccc3)C3C4(OC(C)=O)COC4CC(O)C3(C)C(O)C(OC(C)=O)C(=C1C)C2(C)C (centres unmarked) [9-Dihydro-13-acetylbaccatin III]	0%	8%
CO[C@@]1(NC(=O)C(C(=O)[O-])c2ccc(O)cc2)C(=O)N2C(C(=O)[O-])=C(CSc3nnnn3C)CO[C@@H]21.[Na+].[Na+] (some centres unmarked) [Moxalactam (sodium salt)]	22%	8%
COc1cc2c(cc1O)CC[n+]1cc3c(OC)c(OC)ccc3cc1-2.[Cl-] [Jatrorrhizine (chloride)]	33%	4%
Cl.N=C(N)NCCC[C@H](N)C(=O)O [L-Arginine (hydrochloride)]	20%	17%
C/C(=C\C=C\[C@@]1(C)OC(=O)[C@]23CC=C(C(=O)O)CC[C@]2(O)[C@H]1CC3)C(=O)O [Demethoxydeacetoxypseudolaric acid B]	0%	0%
COc1cc2c(cc1OC)[C@@H]1Cc3ccc(OC)c(OC)c3CN1CC2 [Rotundine]	–	12%
NC(=O)c1cc[n+](CC2=C(C(=O)[O-])N3C(=O)[C@@H](NC(=O)[C@@H](c4ccccc4)S(=O)(=O)[O-])[C@H]3SC2)cc1.[Na+] [Cefsulodin (sodium)]	17%	6%

Molecule	Percentage of motility inhibition 0 h	Percentage of motility inhibition 24 h
CCC(C)(C)C(=O)OC1=C(c2ccc(Cl)cc2Cl)C(=O)OC12CCCCC2 [Spirodiclofen]	5%	0%
Cl.N[C@@H]1CCCCN(c2c(F)cc3c(=O)c(C(=O)O)cn(C4CC4)c3c2Cl)C1 [Besifloxacin (Hydrochloride)]	6%	32%
C[C@@H]1CC[C@]2(C(=O)O)CC[C@]3(C)C(=CC[C@@H]4[C@@]5(C)CC[C@H](O)[C@](C)(C(=O)O)[C@@H]5CC[C@]43C)[C@@H]2[C@]1(C)O [Ilexgenin A]	27%	0%
CO[C@@H]1C=C2[C@@H]3CC(C)(C)CC[C@]3(CO)[C@H](O)C[C@@]2(C)[C@]2(C)CC[C@H]3[C@](C)(CO)[C@@H](O[C@@H]4O[C@H](C)[C@H](O)[C@H](O[C@@H]5O[C@H](CO)[C@@H](O)[C@H](O)[C@H]5O)[C@H]4O)CC[C@]3(C)[C@@H]12 [Saikosaponin B4]	13%	36%
CCOC(=O)C1=C[C@@H](OC(CC)CC)[C@H](NC(C)=O)[C@@H](N)C1.O=P(O)(O)O [Oseltamivir ( phosphate)]	0%	0%
CN[C@@H]1[C@H](O[C@H]2[C@H](O[C@H]3[C@H](O)[C@@H](O)[C@H](NC(=N)N)[C@@H](O)[C@@H]3NC(=N)N)O[C@@H](C)[C@]2(O)CO)O[C@@H](CO)[C@H](O)[C@H]1O.CN[C@@H]1[C@H](O[C@H]2[C@H](O[C@H]3[C@H](O)[C@@H](O)[C@H](NC(=N)N)[C@@H](O)[C@@H]3NC(=N)N)O[C@@H](C)[C@]2(O)CO)O[C@@H](CO)[C@H](O)[C@H]1O.O=S(=O)(O)O.O=S(=O)(O)O.O=S(=O)(O)O [Dihydrostreptomycin (sulfate)]	0%	0%
CC1(C)[C@@H](O[C@H]2O[C@H](C(=O)O)[C@@H](O)[C@H](O)[C@H]2O[C@@H]2O[C@H](C(=O)O)[C@@H](O)[C@H](O)[C@H]2O)CC[C@]2(C)[C@H]3C(=O)C=C4[C@@H]5C[C@@](C)(C(=O)O)CC[C@]5(C)CC[C@@]4(C)[C@]3(C)CC[C@@H]12 [Ammonium glycyrrhizinate]	20%	11%
C=C(C)[C@H]1C=C[C@@](C)(O)CC1 [cis-Isolimonenol]	2%	30%
CC(C)=CCC[C@@](C)(O)[C@H]1CC[C@]2(C)[C@@H]1[C@H](O)C[C@@H]1[C@@]3(C)C[C@@H](O)[C@H](O[C@@H]4O[C@H](CO)[C@@H](O)[C@H](O)[C@H]4O[C@@H]4O[C@H](CO)[C@@H](O)[C@H](O)[C@H]4O)C(C)(C)[C@@H]3CC[C@]12C [Gypenoside LI]	0%	0%
(−)-Myrtenal	21%	14%
Cc1c2ccncc2c(C)c2c1[nH]c1ccccc12.Cl [Ellipticine (hydrochloride)]	9%	11%
COC(=O)C1=CCCNC1.Cl [Guvacoline (hydrochloride)]	0%	0%
CCCCCCCCCCCC(=O)O [Lauric acid]	58%	61%
COc1cc2c(cc1O)CC[n+]1cc3c4c(ccc3cc1-2)OCO4 [Groenlandicine]	0%	0%
CC1(C)CC[C@]2(C(=O)O[C@@H]3O[C@H](CO)[C@@H](O)[C@H](O)[C@H]3O)[C@H](O)C[C@]3(C)C(=CC[C@@H]4[C@@]5(C)CC[C@H](O[C@@H]6O[C@H](CO)[C@@H](O)[C@H](O)[C@H]6O)C(C)(C)[C@@H]5CC[C@]43C)[C@@H]2C1 [Eclalbasaponin I]	35%	35%
CO/N=C(\C(=O)N[C@@H]1C(=O)N2C(C(=O)O)=C(C[N+]3(C)CCCC3)CS[C@H]12)c1csc(N)n1.Cl.O.[Cl-] [Cefepime (Dihydrochloride Monohydrate)]	7%	1%
COC(=O)C1=CO[C@@H](O[C@@H]2O[C@H](CO)[C@@H](O)[C@H](O)[C@H]2O)[C@@H]2C(CO)=C[C@H](O)[C@H]12 [Methyl deacetylasperulosidate]	16%	30%
COC(=O)CC(NC(=O)[C@@H](NC(=O)OC(C)C)C(C)C)c1ccc(Cl)cc1 (some centres unmarked) [Valifenalate]	26%	3%
COC(=O)C1=COC(O[C@@H]2O[C@H](CO)[C@@H](O)[C@H](O)[C@H]2O)/C(=C/C(=O)O)C1CC(=O)OCCc1ccc(O)c(O)c1 (some centres unmarked) [Oleuropeinic acid]	0%	8%
